Source: PubChem BioAssay (NCI)
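A five-concentration, 48-hour dose response in 96-well plates underlies each endpoint, interpolated linearly between surrounding concentrations. TGI marks complete inhibition of growth.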

How the values were obtained:
Assay in all cases: NCI-60 cell line screen, 48 h
786-0 renal = test system: 786-0 renal
A498 renal = test system: A498 renal
A549 NSCLC = test system: A549 NSCLC
ACHN renal = test system: ACHN renal
BT-549 breast = test system: BT-549 breast
CCRF-CEM leukemia = test system: CCRF-CEM leukemia
COLO 205 colon = test system: COLO 205 colon
DU-145 prostate = test system: DU-145 prostate
EKVX NSCLC = test system: EKVX NSCLC
HCC-2998 colon = test system: HCC-2998 colon
HCT-116 colon = test system: HCT-116 colon
HCT-15 colon = test system: HCT-15 colon
HL-60(TB) leukemia = test system: HL-60(TB) leukemia
HOP-62 NSCLC = test system: HOP-62 NSCLC
HOP-92 NSCLC = test system: HOP-92 NSCLC
HS 578T breast = test system: HS 578T breast
HT29 colon = test system: HT29 colon
IGROV1 ovarian = test system: IGROV1 ovarian
K-562 leukemia = test system: K-562 leukemia
LOX IMVI melanoma = test system: LOX IMVI melanoma
M14 melanoma = test system: M14 melanoma
MALME-3M melanoma = test system: MALME-3M melanoma
MCF7 breast = test system: MCF7 breast
MDA-MB-231 breast = test system: MDA-MB-231 breast
MDA-N = test system: MDA-N
MOLT-4 leukemia = test system: MOLT-4 leukemia
NCI-H226 lung = test system: NCI-H226 lung
NCI-H23 lung = test system: NCI-H23 lung
NCI-H460 lung = test system: NCI-H460 lung
NCI-H522 lung = test system: NCI-H522 lung
NCI/ADR-RES ovarian = test system: NCI/ADR-RES ovarian
OVCAR-5 ovarian = test system: OVCAR-5 ovarian
OVCAR-8 ovarian = test system: OVCAR-8 ovarian
PC-3 prostate = test system: PC-3 prostate
RPMI-8226 leukemia = test system: RPMI-8226 leukemia
RXF 393 renal = test system: RXF 393 renal
SF-268 CNS = test system: SF-268 CNS
SF-295 CNS = test system: SF-295 CNS
SK-MEL-2 melanoma = test system: SK-MEL-2 melanoma
SK-MEL-28 melanoma = test system: SK-MEL-28 melanoma
SK-MEL-5 melanoma = test system: SK-MEL-5 melanoma
SK-OV-3 ovarian = test system: SK-OV-3 ovarian
SN12C renal = test system: SN12C renal
SNB-19 CNS = test system: SNB-19 CNS
SNB-75 CNS = test system: SNB-75 CNS
SR leukemia = test system: SR leukemia
SW-620 colon = test system: SW-620 colon
T-47D breast = test system: T-47D breast
TK-10 renal = test system: TK-10 renal
U251 CNS = test system: U251 CNS
UACC-257 melanoma = test system: UACC-257 melanoma
UACC-62 melanoma = test system: UACC-62 melanoma
UO-31 renal = test system: UO-31 renal
CAKI-1 renal = test system: CAKI-1 renal
KM12 colon = test system: KM12 colon
MDA-MB-435 = test system: MDA-MB-435
OVCAR-3 ovarian = test system: OVCAR-3 ovarian
OVCAR-4 ovarian = test system: OVCAR-4 ovarian

Measured: TGI

CN(C)c1nc2nonc2nc1Nc1ccccc1
not listed: CAKI-1 renal | KM12 colon | MDA-MB-435 | OVCAR-3 ovarian | OVCAR-4 ovarian
> 100 µM: all other assays above

COC(=O)[C@@H]1CCc2nc3ccccc3c(=O)n21
not listed: MALME-3M melanoma | MCF7 breast | PC-3 prostate | RXF 393 renal | SNB-19 CNS
> 100 µM: all other assays above
